Test results as given in patent US12077503B2, “Substituted cyclic amides and their use as herbicides” (FMC CORPORATION, priority 2015, dated 2024).

What was measured:
Assay type in all cases: in vivo
Kochia (Kochia scoparia) [1] = assay: Test A preemergence; details: Bassia scoparia, pre-emergence, 240 h, Preemergence; for pest or weed control at 31 g/ha: 31 g ai/ha, 0 to 100 scale where 0 is no effect and 100 is complete control, read-out: Kochia plant response rating; for pest or weed control at 125 g/ha: 125 g ai/ha, 0 to 100 scale (0 no effect, 100 complete control), read-out: Plant response rating, Kochia
Outline: (§1)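 Visual injury scores from 0, no effect, to 100, complete control, were assigned versus untreated controls roughly 10 d after treatment in the greenhouse. Test chemicals, formulated with surfactant in a non-phytotoxic solvent, were applied to planted seeds as a preemergence soil spray or postemergence to one- to two-leaf plants 2 to 10 cm tall, in loam–sand soil.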

[2] = system: giant foxtail (Setaria faberii); assay: Test A preemergence; details: Setaria faberi, pre-emergence, 240 h, Preemergence; for pest or weed control at 31 g/ha: 31 g ai/ha, 0 to 100 scale where 0 is no effect and 100 is complete control, read-out: Foxtail, Giant plant response rating; for pest or weed control at 125 g/ha: 125 g ai/ha, 0 to 100 scale (0 no effect, 100 complete control), read-out: Plant response rating, Foxtail, Giant
Outline: as §1

[3] = system: barnyardgrass (Echinochloa crus-galli); assay: Test A preemergence; details: Echinochloa crus-galli, pre-emergence, 240 h, Preemergence; for pest or weed control at 31 g/ha: 31 g ai/ha, 0 to 100 scale where 0 is no effect and 100 is complete control, read-out: Barnyardgrass plant response rating; for pest or weed control at 125 g/ha: 125 g ai/ha, 0 to 100 scale (0 no effect, 100 complete control), read-out: Plant response rating, Barnyardgrass
Outline: as §1

[4] = system: ryegrass, Italian (Italian ryegrass, Lolium multiflorum); assay: Test A preemergence; details: Lolium multiflorum, pre-emergence, 240 h, Preemergence; for pest or weed control at 31 g/ha: 31 g ai/ha, 0 to 100 scale where 0 is no effect and 100 is complete control, read-out: Ryegrass, Italian plant response rating; for pest or weed control at 125 g/ha: 125 g ai/ha, 0 to 100 scale (0 no effect, 100 complete control), read-out: Plant response rating, Ryegrass, Italian
Outline: as §1

[5] = system: ragweed (common ragweed, Ambrosia elatior); assay: Test A preemergence; details: Ambrosia artemisiifolia, pre-emergence, 240 h, Preemergence; for pest or weed control at 31 g/ha: 31 g ai/ha, 0 to 100 scale where 0 is no effect and 100 is complete control, read-out: Ragweed plant response rating; for pest or weed control at 125 g/ha: 125 g ai/ha, 0 to 100 scale (0 no effect, 100 complete control), read-out: Plant response rating, Ragweed
Outline: as §1

[6] = system: pigweed (Amaranthus retroflexus); assay: Test A preemergence; details: Amaranthus retroflexus, pre-emergence, 240 h, Preemergence; for pest or weed control at 31 g/ha: 31 g ai/ha, 0 to 100 scale where 0 is no effect and 100 is complete control, read-out: Pigweed plant response rating; for pest or weed control at 125 g/ha: 125 g ai/ha, 0 to 100 scale (0 no effect, 100 complete control), read-out: Plant response rating, Pigweed
Kochia (Kochia scoparia) [7] = assay: Test A postemergence; details: Bassia scoparia, post-emergence, 240 h, Postemergence, read-out: Kochia plant response rating (0 to 100 scale); for pest or weed control at 125 g/ha: 125 g ai/ha, visual rating about 10 d after treatment; for pest or weed control at 31 g/ha: 31 g ai/ha, 0 is no effect, 100 is complete control
Outline: as §1

[8] = system: Galium (catchweed bedstraw, Galium aparine); assay: Test A postemergence; details: Galium, post-emergence, 240 h, Postemergence, read-out: Galium plant response rating (0 to 100 scale); for pest or weed control at 125 g/ha: 125 g ai/ha, visual rating about 10 d after treatment; for pest or weed control at 31 g/ha: 31 g ai/ha, 0 is no effect, 100 is complete control
Outline: as §1

[9] = system: giant foxtail (Setaria faberii); assay: Test A postemergence; details: Setaria faberi, post-emergence, 240 h, Postemergence, read-out: Foxtail, Giant plant response rating (0 to 100 scale); for pest or weed control at 125 g/ha: 125 g ai/ha, visual rating about 10 d after treatment; for pest or weed control at 31 g/ha: 31 g ai/ha, 0 is no effect, 100 is complete control
Outline: as §1

[10] = system: wheat (Triticum aestivum); assay: Test A postemergence; details: Triticum aestivum, post-emergence, 240 h, Postemergence, read-out: Wheat plant response rating (0 to 100 scale); for plant injury at 125 g/ha: 125 g ai/ha, visual rating about 10 d after treatment; for plant injury at 31 g/ha: 31 g ai/ha, 0 is no effect, 100 is complete control
Outline: as §1

[11] = system: barnyardgrass (Echinochloa crus-galli); assay: Test A postemergence; details: Echinochloa crus-galli, post-emergence, 240 h, Postemergence; for pest or weed control at 125 g/ha: 125 g ai/ha, visual rating about 10 d after treatment, read-out: Barnyardgrass plant response rating (0 to 100 scale, 0 no effect, 100 complete control); for pest or weed control at 31 g/ha: 31 g ai/ha, 0 is no effect, 100 is complete control, read-out: Barnyardgrass plant response rating (0 to 100 scale)
Outline: as §1

[12] = system: ryegrass, Italian (Italian ryegrass, Lolium multiflorum); assay: Test A postemergence; details: Lolium multiflorum, post-emergence, 240 h, Postemergence, read-out: Ryegrass, Italian plant response rating (0 to 100 scale); for pest or weed control at 125 g/ha: 125 g ai/ha, visual rating about 10 d after treatment; for pest or weed control at 31 g/ha: 31 g ai/ha, 0 is no effect, 100 is complete control
Outline: as §1

[13] = system: ragweed (common ragweed, Ambrosia elatior); assay: Test A postemergence; details: Ambrosia artemisiifolia, post-emergence, 240 h, Postemergence, read-out: Ragweed plant response rating (0 to 100 scale); for pest or weed control at 125 g/ha: 125 g ai/ha, visual rating about 10 d after treatment; for pest or weed control at 31 g/ha: 31 g ai/ha, 0 is no effect, 100 is complete control
Outline: as §1

corn (Zea mays) = assay: Test A postemergence; details: Zea mays, post-emergence, 240 h, Postemergence, read-out: Corn plant response rating (0 to 100 scale); for plant injury at 125 g/ha: 125 g ai/ha, visual rating about 10 d after treatment; for plant injury at 31 g/ha: 31 g ai/ha, 0 is no effect, 100 is complete control
Outline: as §1

[14] = system: pigweed (Amaranthus retroflexus); assay: Test A postemergence; details: Amaranthus retroflexus, post-emergence, 240 h, Postemergence, read-out: Pigweed plant response rating (0 to 100 scale); for pest or weed control at 125 g/ha: 125 g ai/ha, visual rating about 10 d after treatment; for pest or weed control at 31 g/ha: 31 g ai/ha, 0 is no effect, 100 is complete control
Outline: as §1

[15] = system: blackgrass (Alopecurus myosuroides); assay: Test A postemergence; details: Alopecurus myosuroides, post-emergence, 240 h, Postemergence, read-out: Blackgrass plant response rating (0 to 100 scale); for pest or weed control at 125 g/ha: 125 g ai/ha, visual rating about 10 d after treatment; for pest or weed control at 31 g/ha: 31 g ai/ha, 0 is no effect, 100 is complete control
Outline: as §1

[16] = system: sedge, umbrella (small-flower umbrella sedge, Cyperus difformis); assay: Test B flooded paddy test; details: Cyperus difformis, 360 h, Flood, 250 g ai/ha; visually evaluated after 13 to 15 d; read-out: Plant response rating, Sedge, Umbrella (0 to 100 scale where 0 is no effect and 100 is complete control)
Outline: (§2)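 Response scored visually against untreated controls, 0 = no effect and 100 = complete control, 13–15 d after treatment in the greenhouse. Compounds added to paddy water held 3 cm above soil surface. Treatment given at 2-leaf stage.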

rice (Oryra sativa) = assay: Test B flooded paddy test; details: Oryza sativa, 360 h, Flood, 250 g ai/ha; visually evaluated after 13 to 15 d; read-out: Plant response rating, Rice (0 to 100 scale where 0 is no effect and 100 is complete control)
Outline: as §2

[17] = system: barnyardgrass (Echinochloa crus-galli); assay: Test B flooded paddy test; details: Echinochloa crus-galli, 360 h, Flood, 250 g ai/ha; visually evaluated after 13 to 15 d; read-out: Plant response rating, Barnyardgrass (0 to 100 scale where 0 is no effect and 100 is complete control)
Outline: as §2

[18] = system: ducksalad (Heteranthera limosa); assay: Test B flooded paddy test; details: Heteranthera limosa, 360 h, Flood, 250 g ai/ha; visually evaluated after 13 to 15 d; read-out: Plant response rating, Ducksalad (0 to 100 scale where 0 is no effect and 100 is complete control)
Outline: as §2

Row | SMILES | pest or weed control at 31 g/ha (Kochia (Kochia scoparia) [1]) [%] | pest or weed control at 125 g/ha (Kochia (Kochia scoparia) [1]) [%] | pest or weed control at 31 g/ha [2] [%] | pest or weed control at 125 g/ha [2] [%] | pest or weed control at 31 g/ha [3] [%] | pest or weed control at 125 g/ha [3] [%] | pest or weed control at 31 g/ha [4] [%] | pest or weed control at 125 g/ha [4] [%] | pest or weed control at 31 g/ha [5] [%] | pest or weed control at 125 g/ha [5] [%] | pest or weed control at 31 g/ha [6] [%] | pest or weed control at 125 g/ha [6] [%] | pest or weed control at 125 g/ha (Kochia (Kochia scoparia) [7]) [%] | pest or weed control at 31 g/ha (Kochia (Kochia scoparia) [7]) [%] | pest or weed control at 125 g/ha [8] [%] | pest or weed control at 31 g/ha [8] [%] | pest or weed control at 125 g/ha [9] [%] | pest or weed control at 31 g/ha [9] [%] | plant injury at 125 g/ha [10] [%] | plant injury at 31 g/ha [10] [%] | further results
1 | CN1C[C@H](c2ccc(C(F)(F)F)cc2)[C@@H](C(=O)Nc2ccc(F)nc2F)C1=O [Compound 1347] | 90 | 90 | 100 | 100 | 80 | 100 | 0 | 30 | 30 | 90 | 90 | 100 | 80 | 60 | 70 | 70 | 90 | 70 | 30 | 20 | pest or weed control at 125 g/ha [11]: 90%; pest or weed control at 31 g/ha [11]: 70%; pest or weed control at 125 g/ha [12]: 40%; pest or weed control at 31 g/ha [12]: 0%; pest or weed control at 125 g/ha [13]: 70%; pest or weed control at 31 g/ha [13]: 40%; plant injury at 125 g/ha (corn (Zea mays)): 30%; plant injury at 31 g/ha (corn (Zea mays)): 30%; pest or weed control at 125 g/ha [14]: 90%; pest or weed control at 31 g/ha [14]: 50%; pest or weed control at 125 g/ha [15]: 60%; pest or weed control at 31 g/ha [15]: 30%; pest or weed control at 250 g/ha [16]: 0%; pest or weed control at 250 g/ha (rice (Oryra sativa)): 0%; pest or weed control at 250 g/ha [17]: 90%; pest or weed control at 250 g/ha [18]: 98%
2 | Cc1cccc([C@H]2CN(C)C(=O)[C@@H]2C(=O)Nc2ccc(F)nc2F)c1 [Compound 1349] | 0 | 20 | 100 | 100 | 20 | 100 | 0 | 0 | 0 | 0 | 0 | 0 | 30 | 0 | 60 | 30 | 80 | 60 | 0 | 0 | pest or weed control at 125 g/ha [11]: 90%; pest or weed control at 31 g/ha [11]: 70%; pest or weed control at 125 g/ha [12]: 20%; pest or weed control at 31 g/ha [12]: 0%; pest or weed control at 125 g/ha [13]: 0%; pest or weed control at 31 g/ha [13]: 0%; plant injury at 125 g/ha (corn (Zea mays)): 0%; plant injury at 31 g/ha (corn (Zea mays)): 0%; pest or weed control at 125 g/ha [14]: 0%; pest or weed control at 31 g/ha [14]: 0%; pest or weed control at 125 g/ha [15]: 20%; pest or weed control at 31 g/ha [15]: 0%; pest or weed control at 250 g/ha [16]: 0%; pest or weed control at 250 g/ha (rice (Oryra sativa)): 0%; pest or weed control at 250 g/ha [17]: 90%; pest or weed control at 250 g/ha [18]: 95%
